According to patent US20250320190A1, “Novel Inhibitors of Leucine Carboxyl Methyltransferase-1 (LCMT-1) and Methods of Use Thereof” (Temple University-Of The Commonwealth System of Higher …, priority 2024, published 2025):

What was measured:
THP-1 cells = assay: Radiosensitization assay (Ghost Dye 710 flow cytometry); format: cell-based, human; conditions: 10 Grays
Procedure: (§1) Jurkat and THP-1 cells were seeded in 6-well plates as described. After 24 hours LCMT-li was added at various concentrations as described. After 3 hours, cells were irradiated at 10 Grays. After 24 hours, cell viability was assessed with Ghost Dye™ 710 staining and flow cytometry as described.

Jurkat cells = assay: as above; format: cell-based, human; conditions: 10 Grays
Procedure: as §1

[1] = test system: HEK-293 cells transfected with pCMV6-LCMT1; assay: Cytotoxicity assay in LCMT-1-transfected cells; format: cell-based; conditions: HEK-293 pCMV6-LCMT1 vs HEK-293; 0.78-50 μM; 48 hours
Procedure: A mammalian LCMT-1 plasmid expression vector was obtained from Origene (pCMV6-LCMT1, catalog #RC200018). HEK-293 cells were transfected with the plasmid using PolyJet™ transfection reagent (SignaGen Laboratories, Frederick, Maryland) according to manufacturer's directions. After 5 hours, the medium was changed. The next day, the transfected cells were seeded in 96-well optical bottom tissue culture plates for cytotoxicity assays as previously described. After 24 hours, the medium was changed to medium containing Compound 2 at various concentrations (0.78-50 μM), or fresh medium with the carrier (dimethyl sulfoxide) in the case of the control. After 48 hours, cells were stained with calcein-AM and fluorescence was measured.

## COC(=O)c1c(NC(=O)c2ccccc2C)sc(C(=O)Nc2cccc(C)c2)c1C [Compound 2, methyl 4-methyl-2-[(2-methylbenzoyl)amino]-5-[[(3-methylphenyl)amino]carbonyl]-3-thiophenecarboxylate]
THP-1 cells
  radiosensitization: demonstrated LCMT-li radiosensitization
Jurkat cells
  radiosensitization: did not demonstrate radiosensitization
[1]
  effect of LCMT-1 overexpression on survival in the presence of Compound 2: significantly increased survival
